Read-outs that look alike come from different tables or passages of the source. Marks after values point to notes of the source that are not given here.
How the values were obtained:
[1] = system: HT29 cells; conditions: for Enhancement of HT29 cell killing by BCNU / ED90, concentration required to kill 90% of HT29 cells with BCNU: BCNU 40 μM
[2] = biological target: T1, P140K mutant alkyltransferase (Homo sapiens, UniProt P16455, P140K); conditions: cited from earlier work
T1 construct: His tag
T1 sequence (P16455 1-207 P140K): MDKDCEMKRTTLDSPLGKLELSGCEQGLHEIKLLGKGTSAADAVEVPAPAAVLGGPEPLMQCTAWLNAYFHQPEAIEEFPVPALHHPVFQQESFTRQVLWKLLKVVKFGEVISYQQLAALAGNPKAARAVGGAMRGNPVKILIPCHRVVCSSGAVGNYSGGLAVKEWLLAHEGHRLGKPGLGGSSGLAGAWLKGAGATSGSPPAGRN

[3] = system: A549 lung tumor cells; test: Colony-forming cytotoxicity assay with BCNU, A549 cells; assay type: cell-based; conditions: 40 μM BCNU, 2 hr exposure in folate free medium
Description: (§1) 2-Amino-O^4-benzyl-6-carboxypteridine (5) is not effective probably because the negative charge on the molecule at physiological pH prevents its easy entry into cells. However, even though O^4-benzylfolic acid is also anionic at physiological pH, it does enhance cell killing by BCNU. Furthermore, its effectiveness as an adjuvant is a function of the cells' ability to express the α-form of the folic acid receptor. […] KB cell killing by 80 μM BCNU in combination with 7 is also illustrated. For these experiments (FIG. 2) cells were grown in RPMI medium, were incubated with 7 for 2 hr and were then treated with either 40 μM BCNU (A549, HT29 and KB cells) or 80 μM BCNU (KB cells) for 2 hr. The medium was then replaced with fresh medium containing no 7. Cells were kept for 16-18 hr before being replated. […]
(§2) Cells were grown either in Dulbecco's modified Eagle's medium supplemented with 10% fetal bovine serum plus 1.5 mM glutamine and 50 μg/mL gentamycin (HT29) or in RPMI 1640 medium in the presence of 10% fetal bovine serum (HT29, A549 and KB cells). The effect of AGT inactivators on the sensitivity of cells to BCNU was determined using a colony-forming assay.^13 Cells were plated at a density of 10^6 in 25-cm^2 flasks and 24 h later were incubated with different concentrations of AGT inactivator for 2 h before exposure to 40 μM (HT29 cells and A549 cells) or 80 μM (KB cells) of BCNU for 2 h. […]

[4] = system: KB nasopharyngeal tumor cells; test: Colony-forming cytotoxicity assay with BCNU, KB cells; assay type: cell-based; conditions: 40 μM or 80 μM BCNU, 2 hr exposure in folate free medium
Description: as §1, §2

[5] = Dulbecco's medium, inactivator present before, during and after BCNU for 16-18 hours
[6] = RPMI medium, inactivator present before and during BCNU only

**Q.** For `Nc1nc(OCc2ccccc2)c2nc(CO)cnc2n1` [Compound 4, 2-Amino-O^4-benzyl-6-hydroxymethylpteridine], which “Enhancement of HT29 cell killing by BCNU” value [1] is on record?
**A.** The value was “capable of enhancing”.

**Q.** What about the “ED90, concentration required to kill 90% of HT29 cells with BCNU” value (“ED90 … to kill 90% of HT29 cells with BCNU” below) [1, 5] of the same compound?
**A.** The value was 0.7^b μM.

**Q.** For `Cc1nc2nc(N)nc(OCc3ccccc3)c2nc1C` [Compound 2, 2-amino-O^4-benzyl-6,7-dimethylpteridine], which “Enhancement of HT29 cell killing by BCNU” value [1] is on record?
**A.** Its value is “capable of enhancing”.

**Q.** What about the “ED90 … to kill 90% of HT29 cells with BCNU” value [1, 5] of the same compound?
**A.** The value was 0.6^b μM.

**Q.** What does the source list for `Nc1nc(OCc2ccccc2)c2nc(C=O)cnc2n1` [Compound 6, 2-Amino-O^4-benzyl-6-formylpteridine]?
**A.** Enhancement of HT29 cell killing by BCNU [1]: capable of enhancing; ED90, concentration required to kill 90% of HT29 cells with BCNU [1, 6]: 0.7^c μM

**Q.** For `Nc1nc(OCc2ccccc2)c2nc[nH]c2n1` [O^6-benzylguanine, reference compound], which “ED90 … to kill 90% of HT29 cells with BCNU” value [1, 5] is on record?
**A.** The value was 0.4^b μM.

**Q.** And the “ED90 … to kill 90% of HT29 cells with BCNU” value [1, 6]?
**A.** The value was 0.7^c μM.

**Q.** And the “Inactivation of the P140K mutant alkyltransferase” value [2]?
**A.** Its value is “essentially resistant”.

**Q.** What does the source list for `Nc1nc(OCc2ccccc2)c2nc(C(=O)O)cnc2n1` [Compound 5, 2-Amino-O^4-benzylpteridine-6-carboxylic acid]?
**A.** Enhancement of HT29 cell killing by BCNU [1]: not effective; ED90, concentration required to kill 90% of HT29 cells with BCNU [1, 5]: inactive

**Q.** Which results are given for `Nc1nc(OCc2ccccc2)c2nccnc2n1` [Compound 1, 2-amino-O^4-benzylpteridine]?
**A.** Enhancement of HT29 cell killing by BCNU [1]: capable of enhancing; ED90, concentration required to kill 90% of HT29 cells with BCNU [1, 5]: 0.2^b μM

**Q.** With `Nc1nc(OCc2ccccc2)c2nc(CNc3ccc(C(=O)N[C@@H](CCC(=O)O)C(=O)O)cc3)cnc2n1` [Compound 7, O^4-Benzylfolic acid] as the compound, how does the “Effectiveness as an adjuvant for cell killing by BCNU (FIG. 2)” value (“Effectiveness as an adjuvant” for short) [3] read?
**A.** Its value is “lowest”.

**Q.** And the “Effectiveness as an adjuvant” value [4]?
**A.** The value was “greatest”.

**Q.** What about the “Enhancement of HT29 cell killing by BCNU” value [1] of the same compound?
**A.** The value was “capable of enhancing”.

**Q.** And the “ED90 … to kill 90% of HT29 cells with BCNU” value ([1]; RPMI folate-free medium)?
**A.** The value was 15 µM.

**Q.** And the “ED90 … to kill 90% of HT29 cells with BCNU” value [1, 6]?
**A.** The value was 24^c,d μM.

**Q.** What about the “Effectiveness as an adjuvant” value ([1]; HT29 cells, 40 μM BCNU, 2 hr exposure in folate free medium) of the same compound?
**A.** Its value is “somewhat greater”.
